Results reported in patent US8598202B2, “Aryl-hydroxyethylamino-pyrimidines and triazines as modulators of fatty acid amide hydrolase” (Janssen Pharmaceutica NV, priority 2008, dated 2013).
Where a name gives a salt, the structure may show the parent alone.

Tests used:
[1] = biological target: T1, FAAH (Homo sapiens, UniProt O00519); test: Assay Method 1: FAAH assay, 3H-anandamide hydrolysis in homogenate of T84 cells or SK-N-MC cells transfected with human FAAH
T1 sequence (O00519 1-579): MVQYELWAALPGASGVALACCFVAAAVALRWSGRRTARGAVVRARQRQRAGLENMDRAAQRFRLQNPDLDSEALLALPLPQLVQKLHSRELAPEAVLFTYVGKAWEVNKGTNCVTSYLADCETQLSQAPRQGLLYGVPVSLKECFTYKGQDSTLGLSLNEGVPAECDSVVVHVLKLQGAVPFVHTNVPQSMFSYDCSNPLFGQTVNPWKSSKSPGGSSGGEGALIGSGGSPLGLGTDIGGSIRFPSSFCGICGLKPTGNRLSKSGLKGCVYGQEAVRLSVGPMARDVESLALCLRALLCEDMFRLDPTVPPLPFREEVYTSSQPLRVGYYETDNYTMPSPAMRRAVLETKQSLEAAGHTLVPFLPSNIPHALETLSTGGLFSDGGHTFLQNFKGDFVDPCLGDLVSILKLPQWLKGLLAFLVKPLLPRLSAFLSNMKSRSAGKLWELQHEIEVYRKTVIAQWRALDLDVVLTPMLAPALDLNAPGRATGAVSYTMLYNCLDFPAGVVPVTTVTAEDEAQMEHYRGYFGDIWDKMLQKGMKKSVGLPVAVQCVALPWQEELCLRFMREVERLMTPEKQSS

[2] = biological target: T2, Rat FAAH-1 (Rattus norvegicus, UniProt P97612); test: Assay Method 2: rat FAAH-1 assay, 3H-anandamide hydrolysis in homogenate of SK-N-MC cells transfected with rat FAAH
T2 sequence (P97612 1-579): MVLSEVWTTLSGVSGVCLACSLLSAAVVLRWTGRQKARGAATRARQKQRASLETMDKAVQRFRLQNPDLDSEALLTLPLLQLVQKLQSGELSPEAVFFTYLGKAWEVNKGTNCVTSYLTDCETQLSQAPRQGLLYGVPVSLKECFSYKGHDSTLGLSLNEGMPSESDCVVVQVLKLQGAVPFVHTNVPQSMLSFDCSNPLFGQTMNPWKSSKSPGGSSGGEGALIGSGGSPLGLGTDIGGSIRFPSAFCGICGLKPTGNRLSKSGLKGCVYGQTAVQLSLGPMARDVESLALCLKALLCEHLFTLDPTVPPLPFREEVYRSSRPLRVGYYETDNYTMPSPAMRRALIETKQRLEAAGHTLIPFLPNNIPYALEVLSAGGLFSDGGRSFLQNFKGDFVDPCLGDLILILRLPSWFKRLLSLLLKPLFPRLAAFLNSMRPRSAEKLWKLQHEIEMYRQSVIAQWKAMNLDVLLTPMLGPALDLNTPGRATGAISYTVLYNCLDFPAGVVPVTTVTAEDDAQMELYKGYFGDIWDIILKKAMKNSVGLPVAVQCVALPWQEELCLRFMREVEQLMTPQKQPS

| SMILES | IC50 [1] [nM] | IC50 [2] [nM] |
| --- | --- | --- |
| O=[N+]([O-])c1ccc(-c2cc(NCC(O)c3ccccc3)ncn2)cc1 (stereo not shown) [Example 5, 2-{[6-(4-Nitrophenyl)pyrimidin-4-yl]amino}-1-phenylethanol trifluoroacetic acid salt] | 132 | 153 |
| CCc1ccc(-c2cc(NCC(O)c3ccccc3)ncn2)cc1 (stereo not shown) [Example 6, 2-{[6-(4-Ethylphenyl)pyrimidin-4-yl]amino}-1-phenylethanol] | 33 | 233 |
| OC(CNc1cc(-c2ccc(Cl)c(Cl)c2)ncn1)c1ccccc1 (stereo not shown) [Example 8, 2-{[6-(3,4-Dichlorophenyl)pyrimidin-4-yl]amino}-1-phenylethanol] | 74 | 168 |
| CCOc1ccc(-c2cc(NCC(O)c3ccccc3)ncn2)cc1 (stereo not shown) [Example 11, 2-({6-[4-(Ethyloxy)phenyl]pyrimidin-4-yl}amino)-1-phenylethanol] | 34 | 375 |
| CC(C)Oc1ccc(-c2cc(NCC(O)c3ccccc3)ncn2)cc1 (stereo not shown) [Example 12, 2-[(6-{4-[(1-Methylethyl)oxy]phenyl}pyrimidin-4-yl)amino]-1-phenylethanol] | 186 | 382 |
| CC(=O)c1ccc(-c2cc(NC[C@H](O)c3ccccc3)ncn2)cc1 [Example 17, 1-[4-(6-{[(2R)-2-Hydroxy-2-phenylethyl]amino}pyrimidin-4-yl)phenyl]ethanone] | 12 | 10 |
| CC(C)Oc1ccc(-c2cc(NC[C@H](O)c3ccccc3)ncn2)cc1Cl [Example 19, (1R)-2-[(6-{3-Chloro-4-[(1-methylethyl)oxy]phenyl}pyrimidin-4-yl)amino]-1-phenylethanol] | 20 | 12 |
| Cc1ccc(-c2cc(NC[C@H](O)c3ccccc3)ncn2)cc1F [Example 20, (1R)-2-{[6-(3-Fluoro-4-methylphenyl)pyrimidin-4-yl]amino}-1-phenylethanol trifluoroacetic acid salt] | 32 | 181 |
| OCc1ccc(-c2cc(NC[C@H](O)c3ccccc3)ncn2)cc1 [Example 21, (1R)-2-([6-[4-(Hydroxymethyl)phenyl]pyrimidin-4-yl]amino)-1-Phenylethanol] | 340 | 1500 |
| O=Cc1ccc(-c2cc(NC[C@H](O)c3ccccc3)ncn2)cc1 [Example 22, 4-(6-{[(2R)-2-Hydroxy-2-phenylethyl]amino}pyrimidin-4-yl)benzaldehyde] | 81 | 270 |
| Cc1cc(-c2cc(NC[C@H](O)c3ccccc3)ncn2)ccc1Cl [Example 26, (1R)-2-{[6-(4-Chloro-3-methylphenyl)pyrimidin-4-yl]amino}-1-phenylethanol trifluoroacetic acid salt] | 52 | 163 |
| O[C@@H](CNc1cc(-c2ccc(Cl)c(F)c2)ncn1)c1ccccc1 [Example 27, (1R)-2-{[6-(4-Chloro-3-fluorophenyl)pyrimidin-4-yl]amino}-1-phenylethanol trifluoroacetic acid salt] | 24 | 120 |
| CCOc1ccc(-c2cc(NC[C@H](O)c3ccccc3)ncn2)cc1C [Example 31, (1R)-2-{[6-(4-Ethoxy-3-methylphenyl)pyrimidin-4-yl]amino}-1-Phenylethanol trifluoroacetic acid salt] | 3 | 21 |
| O[C@@H](CNc1cc(-c2ccc(OCC3CC3)cc2)ncn1)c1ccccc1 [Example 32, (1R)-2-({6-[4-(Cyclopropylmethoxy)phenyl]pyrimidin-4-yl}amino)-1-phenylethanol trifluoroacetic acid salt] | 92 | 1000 |
| CCCCOc1ccc(-c2cc(NC[C@H](O)c3ccccc3)ncn2)cc1F [Example 33, (1R)-2-{[6-(4-Butoxy-3-fluorophenyl)pyrimidin-4-yl]amino}-1-phenylethanol trifluoroacetic acid salt] | 270 | 2000 |
| CCCOc1ccc(-c2cc(NC[C@H](O)c3ccccc3)ncn2)cc1F [Example 35, (1R)-2-{[6-(3-Fluoro-4-propoxyphenyl)pyrimidin-4-yl]amino}-1-Phenylethanol trifluoroacetic acid salt] | 43 | 180 |
| CC(C)Oc1ccc(-c2cc(NC[C@H](O)c3ccccc3)ncn2)cc1F [Example 36, (1R)-2-({6-[3-Fluoro-4-(1-methylethoxy)phenyl]pyrimidin-4-yl}amino)-1-phenylethanol trifluoroacetic acid salt] | 8 | 20 |
| CC(C)COc1ccc(-c2cc(NC[C@H](O)c3ccccc3)ncn2)cc1 [Example 37, (1R)-2-({6-[4-(2-Methylpropoxy)phenyl]pyrimidin-4-yl}amino)-1-phenylethanol trifluoroacetic acid salt] | 400 | 8000 |
| Cc1ccc(-c2cc(NC[C@H](O)c3ccccc3)ncn2)cc1Cl [Example 39, (1R)-2-{[6-(3-Chloro-4-methylphenyl)pyrimidin-4-yl]amino}-1-phenylethanol trifluoroacetic acid salt] | 18 | 60 |
| Cc1cc(C)cc(-c2cc(NC[C@H](O)c3ccccc3)ncn2)c1 [Example 40, (1R)-2-{[6-(3,5-Dimethylphenyl)pyrimidin-4-yl]amino}-1-phenylethanol trifluoroacetic acid salt] | 766 | > 10000 |

Continued, values first:

| IC50 [1] [nM] | IC50 [2] [nM] | SMILES |
| --- | --- | --- |
| 206 | 793 | O[C@@H](CNc1cc(-c2cc(F)cc(C(F)(F)F)c2)ncn1)c1ccccc1 [Example 42, (1R)-2-({6-[3-Fluoro-5-(trifluoromethyl)phenyl]pyrimidin-4-yl}amino)-1-phenylethanol trifluoroacetic acid salt] |
| 88 | 446 | O[C@@H](CNc1cc(-c2cc(F)cc(Cl)c2)ncn1)c1ccccc1 [Example 43, (1R)-2-{[6-(3-Chloro-5-fluorophenyl)pyrimidin-4-yl]amino}-1-phenylethanol trifluoroacetic acid salt] |
| 50 | 600 | CCCOc1ccc(-c2cc(NC[C@H](O)c3ccccc3)ncn2)cc1 [Example 44, (1R)-1-Phenyl-2-{[6-(4-propoxyphenyl)pyrimidin-4-yl]amino}ethanol trifluoroacetic acid salt] |
| 150 | 600 | O[C@@H](CNc1cc(-c2ccc3nonc3c2)ncn1)c1ccccc1 [Example 45, (1R)-2-{[6-(2,1,3-Benzoxadiazol-5-yl)pyrimidin-4-yl]amino}-1-Phenylethanol trifluoroacetic acid salt] |
| 13 | 26 | Cc1cc(-c2cc(NC[C@H](O)c3ccccc3)ncn2)ccc1OC(C)C [Example 46, (1R)-2-({6-[3-Methyl-4-(1-methylethoxy)phenyl]pyrimidin-4-yl}amino)-1-phenylethanol] |
| 26 | 510 | Cc1c(NC[C@H](O)c2ccccc2)ncnc1-c1ccc(C(F)(F)F)c(Cl)c1 [Example 47, (1R)-2-({6-[3-Chloro-4-(trifluoromethyl)phenyl]-5-methylpyrimidin-4-yl}amino)-1-phenylethanol trifluoroacetic acid salt] |
| 105 | 1500 | Cc1c(NC[C@H](O)c2ccccc2)ncnc1-c1ccc(C(F)(F)F)c(F)c1 [Example 48, (1R)-2-({6-[3-Fluoro-4-(trifluoromethyl)phenyl]-5-methylpyrimidin-4-yl}amino)-1-phenylethanol trifluoroacetic acid salt] |
| 2 | 9 | O[C@@H](CNc1cc(-c2cc(F)c(OC(F)F)c(F)c2)ncn1)c1ccccc1 [Example 49, (1R)-2-({6-[4-(Difluoromethoxy)-3,5-difluorophenyl]pyrimidin-4-yl}amino)-1-phenylethanol trifluoroacetic acid salt] |
| 92 | 985 | CC(C)(C#N)c1ccc(-c2cc(NC[C@H](O)c3ccccc3)ncn2)cc1 [Example 50, 2-[4-(6-{[(2R)-2-Hydroxy-2-phenylethyl]amino}pyrimidin-4-yl)phenyl]-2-methylpropanenitrile trifluoroacetic acid salt] |
